Data reported in PubChem BioAssay AID493146 (Sanford-Burnham Center for Chemical Genomics, 2011).
Calls of active or inactive are those of the source. How the calls were made is not given here.

These compounds were tested against intestinal alkaline phosphatase (Alpi), Mus musculus (assay: murine Alpi activation by analogs – biochemical, luminescence, SAR follow-up (AID 493146)). Details: purified mouse IAP, luminescent substrate.

EC50, inactive:
CC(C(=O)Nc1ccc(C(=O)O)cc1)N1C(=O)/C(=C\c2ccco2)SC1=S (stereo not given) > 100 µM
COc1ccccc1NC(=O)CCNS(=O)(=O)c1ccc2[nH]c(=O)oc2c1 > 100 µM
N#Cc1c(SCC(=O)Nc2nc3ccccc3s2)sc2c(O)cc(=O)[nH]c12 > 100 µM
CCN(C(=O)C(C)N1C(=O)/C(=C/c2ccco2)SC1=S)C1CCS(=O)(=O)C1 (stereo not given) > 100 µM
CCSc1nnc(NC(=O)CSc2sc3c(O)cc(=O)[nH]c3c2C#N)s1 > 100 µM
CCc1nnc(NC(=O)CSc2sc3c(O)cc(=O)[nH]c3c2C#N)s1 > 100 µM
COc1cccc(/C=N/NC(=O)c2cc(O)c(O)c(O)c2)c1 > 100 µM
CN1CCC(=NNC(=O)c2cc(O)c(O)c(O)c2)CC1 > 100 µM
Cc1cc(=O)oc2cc(NC(=S)NCCC(c3ccccc3)c3ccccc3)ccc12 > 100 µM
O=C(N/N=C/c1ccccc1F)c1cc(O)c(O)c(O)c1 > 100 µM
O=C(CN1C(=O)/C(=C\c2ccco2)SC1=S)Nc1cccc(C(=O)O)c1 > 100 µM
CC(C)N1CCC(=NNC(=O)c2cc(O)c(O)c(O)c2)CC1 > 100 µM
O=C(N/N=C/C1CC=CCC1)c1cc(O)c(O)c(O)c1 (stereo not given) > 100 µM
N#Cc1c(SCC(=O)NCc2ccc3c(c2)OCO3)sc2c(O)cc(=O)[nH]c12 > 100 µM
O=C(CN1C(=O)/C(=C/c2ccco2)SC1=S)NCCc1ccc(O)cc1 > 100 µM
